Experimental data: patent publication US20170050957A1, “4-AMINO-6-(HETEROCYCLIC)PICOLINATES AND 6-AMINO-2-(HETEROCYCLIC)PYRIMIDINE-4-CARBOXYLATES AND THEIR USE AS HERBICIDES” (Dow AgroSciences LLC, priority 2013, published 2017)
Read-outs that look alike come from different tables or passages of the source.

Key:
[1] = tested on: Key Broadleaf Weed and Crop Species; assay: Post-emergent Test II herbicidal activity (Table 15); format: in vivo; conditions: post-emergence, 336 h, 14 d; for pest or weed control at 35 g/ha: 35 g ai/ha; for pest or weed control at 70 g/ha: 70 g ai/ha; for pest or weed control at 140 g/ha: 140 g ai/ha
Method in brief: (§1)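 Plants grown in greenhouse (~15 h photoperiod, 23-29 °C day, 22-28 °C night) to first or second true leaf stage, then sprayed post-emergence at 187 L/ha with a high rate and 1/2×, 1/4×, 1/8× and 1/16× dilutions. Injury scored visually after 14 d, 0-100% versus untreated plants.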

[2] = tested on: Key Grass and Sedge Weeds as well as Grass Crops; assay: Post-emergent Test II herbicidal activity (Table 16); format: in vivo; conditions: post-emergence, 336 h, 14 d; for pest or weed control at 35 g/ha: 35 g ai/ha; for pest or weed control at 70 g/ha: 70 g ai/ha; for pest or weed control at 140 g/ha: 140 g ai/ha
Method in brief: as §1

[3] = Abutilon theophrasti, velvetleaf (Abutilon theophrasti), read-out: Visual Growth Reduction (%) 14 Days After Application, ABUTH
[4] = Amaranthus retroflexus, redroot pigweed (Amaranthus retroflexus), read-out: Visual Growth Reduction (%) 14 Days After Application, AMARE
[5] = Brassica napus, oilseed rape, canola (Brassica napus), read-out: Visual Growth Reduction (%) 14 Days After Application, BRSNN
[6] = Chenopodium album, lambsquarters (Chenopodium album), read-out: Visual Growth Reduction (%) 14 Days After Application, CHEAL
[7] = Euphorbia heterophylla, wild poinsettia (Euphorbia heterophylla), read-out: Visual Growth Reduction (%) 14 Days After Application, EPHHL
[8] = Helianthus annuus, sunflower (Helianthus annuus), read-out: Visual Growth Reduction (%) 14 Days After Application, HELAN
[9] = Cyperus esculentus, yellow nutsedge (Cyperus esculentus), read-out: Visual Growth Reduction (%) 14 Days After Application, CYPES
[10] = Echinochloa crus-galli, barnyardgrass (Echinochloa crus-galli), read-out: Visual Growth Reduction (%) 14 Days After Application, ECHCG
[11] = Oryza sativa, rice (Oryza sativa), read-out: Visual Growth Reduction (%) 14 Days After Application, ORYSA
[12] = Setaria faberi, giant foxtail (Setaria faberi), read-out: Visual Growth Reduction (%) 14 Days After Application, SETFA
[13] = Triticum aestivum, wheat, spring (Triticum aestivum), read-out: Visual Growth Reduction (%) 14 Days After Application, TRZAS
[14] = Zea mays, maize, corn (Zea mays), read-out: Visual Growth Reduction (%) 14 Days After Application, ZEAMX

Row | Compound | pest or weed control at 35 g/ha [1, 3] [%] | pest or weed control at 70 g/ha [1, 3] [%] | pest or weed control at 140 g/ha [1, 3] [%] | pest or weed control at 35 g/ha [1, 4] [%] | pest or weed control at 70 g/ha [1, 4] [%] | pest or weed control at 140 g/ha [1, 4] [%] | pest or weed control at 35 g/ha [1, 5] [%] | pest or weed control at 70 g/ha [1, 5] [%] | pest or weed control at 140 g/ha [1, 5] [%] | pest or weed control at 35 g/ha [1, 6] [%] | pest or weed control at 70 g/ha [1, 6] [%] | pest or weed control at 140 g/ha [1, 6] [%] | pest or weed control at 35 g/ha [1, 7] [%] | pest or weed control at 70 g/ha [1, 7] [%] | pest or weed control at 140 g/ha [1, 7] [%] | pest or weed control at 35 g/ha [1, 8] [%] | pest or weed control at 70 g/ha [1, 8] [%] | pest or weed control at 140 g/ha [1, 8] [%] | pest or weed control at 35 g/ha [2, 9] [%] | pest or weed control at 70 g/ha [2, 9] [%] | further results
1 | COC(=O)c1nc(-c2ccc3sccc3c2)c(Cl)c(N)c1Cl [Compound 3.01, Methyl 4-amino-6-(benzo[b]thiophenyl-5-yl)-3,5-dichloropicolinate] | 60 to 74 | 60 to 74 | 75 to 84 | 85 to 94 | 95 to 100 | 95 to 100 | 0 to 29 | 0 to 29 | 0 to 29 | 95 to 100 | 95 to 100 | 95 to 100 | 0 to 29 | 0 to 29 | 0 to 29 | 75 to 84 | 75 to 84 | 85 to 94 | 0 to 29 | 0 to 29 | pest or weed control at 140 g/ha [2, 9]: 0 to 29%; pest or weed control at 35 g/ha [2, 10]: 0 to 29%; pest or weed control at 70 g/ha [2, 10]: 0 to 29%; pest or weed control at 140 g/ha [2, 10]: 0 to 29%; pest or weed control at 35 g/ha [2, 11]: 0 to 29%; pest or weed control at 70 g/ha [2, 11]: 0 to 29%; pest or weed control at 140 g/ha [2, 11]: 0 to 29%; pest or weed control at 35 g/ha [2, 12]: 0 to 29%; pest or weed control at 70 g/ha [2, 12]: 0 to 29%; pest or weed control at 140 g/ha [2, 12]: 0 to 29%; pest or weed control at 35 g/ha [2, 13]: 0 to 29%; pest or weed control at 70 g/ha [2, 13]: 0 to 29%; pest or weed control at 140 g/ha [2, 13]: 0 to 29%; pest or weed control at 35 g/ha [2, 14]: 0 to 29%; pest or weed control at 70 g/ha [2, 14]: 45 to 59%; pest or weed control at 140 g/ha [2, 14]: 60 to 74%; melting point: 50 to 56 °C
2 | Nc1c(Cl)c(C(=O)O)nc(-c2ccc3sccc3c2)c1Cl [Compound 3.02, 4-Amino-6-(benzo[b]thiophen-5-yl)-3,5-dichloropicolinic acid] | 0 to 29 | 0 to 29 | 0 to 29 | 95 to 100 | 95 to 100 | 95 to 100 | 0 to 29 | 0 to 29 | 0 to 29 | 85 to 94 | 85 to 94 | 85 to 94 | 0 to 29 | 0 to 29 | 0 to 29 | 60 to 74 | 75 to 84 | 85 to 94 | 0 to 29 | 0 to 29 | pest or weed control at 140 g/ha [2, 9]: 0 to 29%; pest or weed control at 35 g/ha [2, 10]: 0 to 29%; pest or weed control at 70 g/ha [2, 10]: 0 to 29%; pest or weed control at 140 g/ha [2, 10]: 0 to 29%; pest or weed control at 35 g/ha [2, 11]: 0 to 29%; pest or weed control at 70 g/ha [2, 11]: 0 to 29%; pest or weed control at 140 g/ha [2, 11]: 0 to 29%; pest or weed control at 35 g/ha [2, 12]: 0 to 29%; pest or weed control at 70 g/ha [2, 12]: 0 to 29%; pest or weed control at 140 g/ha [2, 12]: 0 to 29%; pest or weed control at 35 g/ha [2, 13]: 0 to 29%; pest or weed control at 70 g/ha [2, 13]: 0 to 29%; pest or weed control at 140 g/ha [2, 13]: 0 to 29%; pest or weed control at 35 g/ha [2, 14]: 0 to 29%; pest or weed control at 70 g/ha [2, 14]: 60 to 74%; pest or weed control at 140 g/ha [2, 14]: 60 to 74%; melting point: 157 to 159 °C
